According to US11072616B2, “Cyclic peptides targeting alpha-4-beta-7 integrin” (Zealand Pharma A/S, priority 2015, dated 2021):

Biological target: T1, integrin α4β7 (Homo sapiens, UniProt P13612+P26010)
T1 sequence (P13612 34-977 limits assumed): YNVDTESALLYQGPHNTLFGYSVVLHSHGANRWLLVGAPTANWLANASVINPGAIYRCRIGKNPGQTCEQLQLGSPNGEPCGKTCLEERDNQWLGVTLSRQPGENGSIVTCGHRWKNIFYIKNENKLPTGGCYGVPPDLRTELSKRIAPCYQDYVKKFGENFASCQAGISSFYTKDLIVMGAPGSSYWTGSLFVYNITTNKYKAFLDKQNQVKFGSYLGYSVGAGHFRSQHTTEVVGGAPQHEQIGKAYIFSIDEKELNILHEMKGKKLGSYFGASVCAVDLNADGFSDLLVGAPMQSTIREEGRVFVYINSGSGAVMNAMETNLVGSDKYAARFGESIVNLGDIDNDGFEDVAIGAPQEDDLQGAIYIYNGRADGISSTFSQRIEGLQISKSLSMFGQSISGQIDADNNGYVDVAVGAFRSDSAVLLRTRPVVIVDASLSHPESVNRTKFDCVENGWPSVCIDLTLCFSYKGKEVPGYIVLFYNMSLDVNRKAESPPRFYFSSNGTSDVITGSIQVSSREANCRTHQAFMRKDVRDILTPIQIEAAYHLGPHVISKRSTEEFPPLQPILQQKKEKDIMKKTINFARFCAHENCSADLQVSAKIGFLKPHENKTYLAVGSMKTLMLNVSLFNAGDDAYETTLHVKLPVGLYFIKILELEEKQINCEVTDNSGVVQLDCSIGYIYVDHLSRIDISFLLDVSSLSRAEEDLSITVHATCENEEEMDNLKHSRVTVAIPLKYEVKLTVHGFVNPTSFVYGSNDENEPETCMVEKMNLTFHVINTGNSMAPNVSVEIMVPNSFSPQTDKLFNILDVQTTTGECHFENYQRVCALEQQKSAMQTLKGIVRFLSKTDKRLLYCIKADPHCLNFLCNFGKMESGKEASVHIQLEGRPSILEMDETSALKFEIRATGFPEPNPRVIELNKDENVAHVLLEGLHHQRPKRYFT
T1 sequence (P26010 20-723 limits assumed): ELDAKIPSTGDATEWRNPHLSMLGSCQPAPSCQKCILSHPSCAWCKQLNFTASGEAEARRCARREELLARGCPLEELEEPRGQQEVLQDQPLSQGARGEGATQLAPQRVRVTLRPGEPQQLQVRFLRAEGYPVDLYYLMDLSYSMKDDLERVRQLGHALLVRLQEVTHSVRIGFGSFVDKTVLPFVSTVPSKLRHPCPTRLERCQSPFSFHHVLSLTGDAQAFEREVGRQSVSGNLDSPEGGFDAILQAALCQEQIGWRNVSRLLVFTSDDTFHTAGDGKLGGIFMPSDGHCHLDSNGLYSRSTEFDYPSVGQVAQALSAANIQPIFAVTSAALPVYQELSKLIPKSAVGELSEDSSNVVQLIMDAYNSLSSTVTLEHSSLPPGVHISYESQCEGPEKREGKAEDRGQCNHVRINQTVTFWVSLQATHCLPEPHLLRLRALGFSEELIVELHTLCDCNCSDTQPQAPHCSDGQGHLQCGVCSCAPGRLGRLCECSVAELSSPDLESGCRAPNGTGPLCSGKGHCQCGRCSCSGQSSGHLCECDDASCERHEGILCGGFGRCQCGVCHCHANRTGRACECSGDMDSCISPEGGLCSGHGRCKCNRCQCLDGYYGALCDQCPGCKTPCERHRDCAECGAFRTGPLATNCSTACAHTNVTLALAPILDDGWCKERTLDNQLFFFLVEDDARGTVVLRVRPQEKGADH
Experiment: Integrin α4β7—MAdCAM-1 competition assay (ELISA)
Assay type: binding
Details: ratio a4b1 ELISA IC50 / a4b7 ELISA IC50
Method: Integrin α4β7—MAdCAM-1 Competition Assay
The plate was incubated at 4° C. overnight. […] The plate was then incubated for 1 hour at room temperature. The plate was washed three times with wash buffer (50 mM Tris, 100 mM NaCl, 1 mM MnCl2, 0.05% Tween). To each well, 50 μl of compound diluted in assay buffer was added by transfer from a compound serial dilution plate. […] The plate was incubated at room temperature with shaking for 2 hours to reach binding equilibrium. Then the plate was washed three times in wash buffer and 100 μl anti-human IgG Fc specific-horseradish peroxidase (HRP) (Abcam, Ab97225) diluted at 1:2000 in assay buffer was added to each well. The plate was incubated at room temperature for 1 hour under agitation. The plates were then washed three times and 100 μl of 1,3′,5,5′-tetramethylbenxidie (TMB) was then added to each well.

Row | Structure (SMILES) | Selectivity ELISA
1 | CC(C)C[C@@H]1NC(=O)c2ccc(-c3ccccc3N3CCNCC3)c(c2)CNC(=O)[C@@H]2CCCN2[C@H](C(=O)NC(C)(C)C)[C@H](C)NC(=O)[C@H]([C@@H](C)O)NC(=O)[C@H](CC(=O)O)NC1=O [Compound 348] | 1.5
2 | CC(C)C[C@@H]1NC(=O)c2ccc(-c3cccc4ncccc34)c(c2)CNC(=O)[C@@H]2CCCN2[C@H](C(=O)NC(C)(C)C)[C@H](C)NC(=O)[C@H]([C@@H](C)O)NC(=O)[C@H](CC(=O)O)NC1=O [Compound 347] | 1.3
3 | CC[C@H](C)[C@@H]1NC(=O)[C@H](CC(=O)O)NC(=O)[C@H](CC(C)C)NC(=O)C[C@H](CCCCN)NC(=O)[C@H](Cc2ccc(CN)cc2)NC(=O)[C@@H]2CCCN2[C@H](C(=O)NC(C)(C)C)[C@H](C)NC1=O [Compound 215] | 12.4
4 | CC(C)C[C@@H]1NC(=O)[C@H](Cc2ccc3ccccc3c2)NC(=O)[C@@H]2CCCN2[C@H](C(=O)NC(C)(C)C)[C@H](C)NC(=O)[C@H]([C@@H](C)O)NC(=O)[C@H](CC(=O)O)NC1=O [Compound 10] | 1.3
5 | CC(C)C[C@@H]1NC(=O)[C@H](Cc2csc(-c3ccncc3)n2)NC(=O)[C@@H]2CCCN2[C@H](C(=O)NC(C)(C)C)[C@H](C)NC(=O)[C@H]([C@@H](C)O)NC(=O)[C@H](CC(=O)O)NC1=O [Compound 97] | 2.5
6 | C=CCOc1ccc(C[C@@H]2NC(=O)[C@@H]3CCCN3[C@H](C(=O)NC(C)(C)C)[C@H](C)NC(=O)[C@H]([C@@H](C)O)NC(=O)[C@H](CC(=O)O)NC(=O)[C@H](CC(C)C)NC(=O)[C@@H](CO)NC2=O)cc1 [Compound 167] | 13.6
7 | CC(C)C[C@@H]1NC(=O)[C@H](Cc2ccc(O)cc2)NC(=O)[C@@H]2CCCN2[C@H](C(=O)NC(C)(C)C)[C@H](C)NC(=O)[C@H](C(C)(C)S)NC(=O)[C@H](CC(=O)O)NC1=O [Compound 55] | 1.1
8 | Cc1cccc(C)c1-c1cccc(C[C@@H]2NC(=O)[C@@H]3CCCN3[C@H](C(=O)NC(C)(C)C)[C@H](C)NC(=O)[C@H]([C@@H](C)O)NC(=O)[C@H](CC(=O)O)NC(=O)[C@H](CC(C)C)NC(=O)C[C@H](CCCCN)NC2=O)c1 [Compound 265] | 46.2
9 | CC(C)C[C@@H]1NC(=O)[C@H]2CCCN2C(=O)[C@H](Cc2cc(Br)c(O)c(Br)c2)NC(=O)[C@@H]2CCCN2[C@H](C(=O)NC(C)(C)C)[C@H](C)NC(=O)[C@H]([C@@H](C)O)NC(=O)[C@H](CC(=O)O)NC1=O [Compound 129] | 9.7
10 | COc1ccc(C[C@@H]2NC(=O)[C@@H]3CCCN3[C@H](C(=O)NC(C)(C)C)[C@H](C)NC(=O)[C@H]([C@@H](C)O)NC(=O)[C@H](CC(=O)O)NC(=O)[C@H](CC(C)C)NC(=O)[C@H]3CCCN3C2=O)cc1OC [Compound 127] | 7.8
11 | CO[C@H](C)[C@@H]1NC(=O)[C@H](CC(=O)O)NC(=O)[C@H](CC(C)C)NC(=O)[C@H](Cc2ccccc2)NC(=O)[C@@H]2CCCN2[C@H](C(=O)NC(C)(C)C)[C@H](C)NC1=O [Compound 40] | 1.9
12 | CC(C)C[C@@H]1NC(=O)c2cc(cc(-c3ccncc3)c2)CNC(=O)[C@@H]2CCCN2[C@H](C(=O)NC(C)(C)C)[C@H](C)NC(=O)[C@H]([C@@H](C)O)NC(=O)[C@H](CC(=O)O)NC1=O [Compound 362] | 5.6
13 | CC(C)C[C@@H]1NC(=O)c2ccc(-c3cccc(CN)c3)c(c2)CNC(=O)[C@H](Cc2ccc(O)cc2)NC(=O)[C@@H]2CCCN2[C@H](C(=O)NC(C)(C)C)[C@H](C)NC(=O)[C@H]([C@@H](C)O)NC(=O)[C@H](CC(=O)O)NC1=O [Compound 339] | 5.8
14 | CC(C)C[C@@H]1NC(=O)[C@H]2CCCCN2C(=O)[C@@H]2CCCN2[C@H](C(=O)NC(C)(C)C)[C@H](C)NC(=O)[C@H]([C@@H](C)O)NC(=O)[C@H](CC(=O)O)NC1=O [Compound 51] | 3.3
15 | CC(C)C[C@@H]1NC(=O)[C@H](Cc2c[nH]cn2)NC(=O)[C@@H]2CCCN2[C@H](C(=O)NC(C)(C)C)[C@@H](CSc2ccccc2)NC(=O)[C@H](C(C)C)NC(=O)[C@H](CC(=O)O)NC1=O [Compound 2] | 1.697
16 | COc1cccc(Cl)c1-c1ccc(C[C@@H]2NC(=O)[C@@H]3CCCN3[C@H](C(=O)NC(C)(C)C)[C@H](C)NC(=O)[C@H]([C@@H](C)O)NC(=O)[C@H](CC(=O)O)NC(=O)[C@H](CC(C)C)NC(=O)C[C@H](CCCCN)NC2=O)cc1 [Compound 269] | 31.6
17 | CC(C)C[C@@H]1NC(=O)C2(CCCC2)NC(=O)[C@H](Cc2ccc(O)cc2)NC(=O)[C@@H]2CCCN2[C@H](C(=O)NC(C)(C)C)[C@H](C)NC(=O)[C@H]([C@@H](C)O)NC(=O)[C@H](CC(=O)O)NC1=O [Compound 104] | 4.2
18 | CC(C)C[C@@H]1NC(=O)[C@H]2C[C@H](O)CN2C(=O)[C@H](Cc2ccc(O)cc2)NC(=O)[C@@H]2CCCN2[C@H](C(=O)NC(C)(C)C)[C@H](C)NC(=O)[C@H]([C@@H](C)O)NC(=O)[C@H](CC(=O)O)NC1=O [Compound 140] | 9.6
19 | CC(C)C[C@@H]1NC(=O)CNC(=O)[C@H](Cc2ccc(CN)cc2)NC(=O)[C@@H]2CCCN2[C@H](C(=O)NC(C)(C)C)[C@H](C)NC(=O)[C@H]([C@@H](C)O)NC(=O)[C@H](CC(=O)O)NC1=O [Compound 165] | 22.8
20 | CC[C@H](C)[C@@H]1NC(=O)[C@H](CC(=O)O)NC(=O)[C@H](CC(C)C)NC(=O)[C@H](Cc2c[nH]c3ccccc23)NC(=O)[C@@H]2CCCN2[C@H](C(=O)NC(C)(C)C)[C@H](C)NC1=O [Compound 8] | 0.9
21 | CC(C)C[C@@H]1NC(=O)C[C@H](CCCCN)NC(=O)CN(Cc2ccccc2)C(=O)[C@@H]2CCCN2[C@H](C(=O)NC(C)(C)C)[C@H](C)NC(=O)[C@H]([C@@H](C)O)NC(=O)[C@H](CC(=O)O)NC1=O [Compound 296] | 94.8
22 | CC(C)C[C@@H]1NC(=O)[C@H]2C[C@H](O)CN2C(=O)[C@H](Cc2cscn2)NC(=O)[C@@H]2CCCN2[C@H](C(=O)NC(C)(C)C)[C@H](C)NC(=O)[C@H]([C@@H](C)O)NC(=O)[C@H](CC(=O)O)NC1=O [Compound 151] | 4.1
23 | CC(C)C[C@@H]1NC(=O)CN(C)C(=O)[C@H](Cc2ccc(I)cc2)NC(=O)[C@@H]2CCCN2[C@H](C(=O)NC(C)(C)C)[C@H](C)NC(=O)[C@H]([C@@H](C)O)NC(=O)[C@H](CC(=O)O)NC1=O [Compound 107] | 16.0
24 | CC(C)C[C@@H]1NC(=O)[C@H](CCc2ccccc2)NC(=O)[C@@H]2CCCN2[C@H](C(=O)NC(C)(C)C)[C@H](C)NC(=O)[C@H]([C@@H](C)O)NC(=O)[C@H](CC(=O)O)NC1=O [Compound 6] | 1.9
25 | CCC[C@@H]1NC(=O)[C@@H]2CCCN2[C@H](C(=O)NC(C)(C)C)[C@H](C)NC(=O)[C@H]([C@@H](C)O)NC(=O)[C@H](CC(=O)O)NC(=O)[C@H](CC(C)C)NC1=O [Compound 71] | 4.4
